Data published in publication PMC6658998, “Pharmacological characterization of the seven human NOX isoforms and their inhibitors” (Redox Biology, 2019).

Legend:
[1] = Cell-free CBA assay with 10 μM H2O2 (H2O2 scavenging); details: 10 μM H2O2, 800 μM CBA
[2] = biological target: T1, NOX2 (Homo sapiens, UniProt P04839); test: NOX2-dependent oxygen consumption in PMA-activated human neutrophils (Seahorse); format: cell-based; details: 100 nM PMA
T1 sequence (P04839 2-570 limits assumed): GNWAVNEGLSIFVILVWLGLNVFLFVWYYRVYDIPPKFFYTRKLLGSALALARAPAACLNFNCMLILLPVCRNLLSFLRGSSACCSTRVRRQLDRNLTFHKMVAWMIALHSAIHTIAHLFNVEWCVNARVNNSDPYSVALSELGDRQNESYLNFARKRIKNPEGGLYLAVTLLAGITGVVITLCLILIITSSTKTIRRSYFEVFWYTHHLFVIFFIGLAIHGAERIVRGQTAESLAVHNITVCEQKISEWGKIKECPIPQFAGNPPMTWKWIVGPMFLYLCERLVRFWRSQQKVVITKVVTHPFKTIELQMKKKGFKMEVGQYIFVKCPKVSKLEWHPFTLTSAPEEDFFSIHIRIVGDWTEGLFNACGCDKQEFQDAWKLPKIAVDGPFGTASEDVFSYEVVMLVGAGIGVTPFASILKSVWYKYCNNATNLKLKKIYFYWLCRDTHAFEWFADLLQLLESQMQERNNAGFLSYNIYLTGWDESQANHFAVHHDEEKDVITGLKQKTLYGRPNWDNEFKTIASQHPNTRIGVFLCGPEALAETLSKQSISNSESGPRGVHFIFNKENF
T1 sequence (P13498 1-195 partner): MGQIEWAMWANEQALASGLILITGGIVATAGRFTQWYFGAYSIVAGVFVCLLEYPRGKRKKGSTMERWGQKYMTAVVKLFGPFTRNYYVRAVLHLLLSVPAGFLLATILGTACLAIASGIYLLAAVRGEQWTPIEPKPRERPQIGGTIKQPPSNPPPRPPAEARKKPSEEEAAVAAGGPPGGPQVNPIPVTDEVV
Experimental: Human polymorphonuclear leukocytes (PMN) were isolated from fresh whole blood collected from healthy volunteers as described. Briefly, 32 mL blood was collected in 8 mL sodium citrate (3.8%) and blood cells sedimented for 40 min with dextran T500 (4% in NaCl 0.9%). The upper yellowish fraction containing leukocytes was collected and centrifugated at 380×g for 10 min. Pellets were resuspended in PBS and separated using Ficoll Plaque™ Plus (450 ×g , with no brake) for 15 min, RT. Red blood cells were lysed by addition of 5 mL H2O for 30 s followed by addition of 5 mL NaCl 1.8%. Remaining PMN were collected by centrifugation for 10 min at 250 ×g , washed and resuspended in HBSS, counted and kept on ice for a maximum of 30 min until they were used for oxygen consumption measurement.
Oxygen consumption was determined using human neutrophils and NOX4 T-Rex HEK293 cells using the Seahorse XF24 Extracellular Flux Analyzer. Neutrophils were plated in 24-well microplates (250,000 cells/well in 200 μL HBSS) and incubated at room temperature for 15 min for attachment. The medium was changed to DMEM without sodium bicarbonate containing 10 mM Hepes prewarmed to 37 °C, and the cells were incubated for 30 min at 37 °C in a non-CO2 incubator. Basal oxygen consumption was recorded for 8 min followed by addition of compounds and 8 min preincubation. PMA (100 nM) was added where indicated and the oxygen consumption rate was determined for two cycles of 8 min each. The signal obtained from neutrophils without PMA treatment was subtracted as a blank, while the signal obtained from PMA + DMSO-treated neutrophils was considered as 100%.

[3] = biological target: T2, NOX3 (Homo sapiens, UniProt Q9HBY0); test: WST-1 O2•- detection in tetracycline-induced NOX3 HEK293 T-REx cells; format: cell-based
T2 sequence (Q9HBY0 1-568): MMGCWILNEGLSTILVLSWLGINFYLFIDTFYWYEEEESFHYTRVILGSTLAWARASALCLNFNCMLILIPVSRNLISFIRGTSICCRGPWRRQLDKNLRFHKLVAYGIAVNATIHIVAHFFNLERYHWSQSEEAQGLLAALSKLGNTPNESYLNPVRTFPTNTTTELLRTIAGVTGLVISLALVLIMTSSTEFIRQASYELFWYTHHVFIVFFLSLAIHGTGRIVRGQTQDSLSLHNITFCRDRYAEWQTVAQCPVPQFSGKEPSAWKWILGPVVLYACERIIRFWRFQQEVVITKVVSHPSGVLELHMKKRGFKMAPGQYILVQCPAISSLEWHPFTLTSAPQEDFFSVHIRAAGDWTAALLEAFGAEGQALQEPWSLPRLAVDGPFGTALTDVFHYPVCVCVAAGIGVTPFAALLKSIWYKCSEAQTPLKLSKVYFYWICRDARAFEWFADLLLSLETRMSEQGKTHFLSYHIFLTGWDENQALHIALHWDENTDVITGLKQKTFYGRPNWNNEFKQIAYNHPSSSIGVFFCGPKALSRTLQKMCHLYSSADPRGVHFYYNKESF
T2 sequence (P13498 1-195 partner): T1 sequence (P13498 1-195 partner)
T2 sequence (Q8NFA2 1-376 partner): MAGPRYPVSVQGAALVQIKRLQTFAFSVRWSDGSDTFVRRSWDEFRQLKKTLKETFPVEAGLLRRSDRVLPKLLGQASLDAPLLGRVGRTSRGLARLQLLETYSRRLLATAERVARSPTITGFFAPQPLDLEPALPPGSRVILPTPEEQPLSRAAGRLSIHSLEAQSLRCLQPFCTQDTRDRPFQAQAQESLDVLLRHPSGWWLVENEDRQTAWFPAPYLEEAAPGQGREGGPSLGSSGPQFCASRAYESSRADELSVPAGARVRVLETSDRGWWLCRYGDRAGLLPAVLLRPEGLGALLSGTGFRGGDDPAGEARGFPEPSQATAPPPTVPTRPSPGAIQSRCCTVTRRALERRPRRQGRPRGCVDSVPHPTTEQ
Text: (§1) Compounds were dispensed prior addition of cells.

[4] = DPPH free radical scavenging assay (absorbance); details: cell-free, DPPH in methanol, 15 min; read-out: Scavenging effect IC50 Absorbance DPPH
[5] = biological target: T2, NOX3; test: Amplex Red/HRP H2O2 detection in tetracycline-induced NOX3 HEK293 T-REx cells; format: cell-based
Text: as §1

[6] = WST-1, tetracycline 1 μg/mL 24 h, read-out: IC50 NOX3 (T-REx) WST-1
[7] = Amplex red/HRP, tetracycline 1 μg/mL 24 h, read-out: IC50 NOX3 (T-REx) AR

Inhibition of NOX2-dependent oxygen consumption ([2]; compound 300 μM)	IC50 [3, 6] [µM]	IC50 [4] [µM]	IC50 [5, 7] [µM]	Inhibition of NOX2-dependent oxygen consumption ([2]; compound 50 μM)	SMILES	Effect on CBA signal (direct scavenging of H2O2) ([1]; at high concentration)	Inhibition of NOX2-dependent oxygen consumption ([2]; concentration not given)	IC50 [3] [µM]	IC50 [5] [µM]	Effect on CBA signal (direct scavenging of H2O2) ([1]; serial dilutions)
only weakly	> 50	> 50	> 50		COc1cc(C(C)=O)ccc1O [Apocynin, apocynin]	inhibited the CBA signal				
	> 50	> 50	> 50	only weakly	COc1cc(C(C)=O)cc(-c2cc(C(C)=O)cc(OC)c2O)c1O [Diapocynin, diapocynin]					inactive
	> 50	21.7	5.7	not	Cc1c2c(=O)n(-c3ccccc3Cl)[nH]c2cc(=O)n1Cc1ccccn1 [GKT136901]					not scavenging H2O2

SMILES	Inhibition of NOX2-dependent oxygen consumption ([2]; compound 300 μM)	IC50 [3, 6] [µM]	IC50 [4] [µM]	IC50 [5, 7] [µM]	Inhibition of NOX2-dependent oxygen consumption ([2]; compound 50 μM)	Effect on CBA signal (direct scavenging of H2O2) ([1]; at high concentration)	Inhibition of NOX2-dependent oxygen consumption ([2]; concentration not given)	IC50 [3] [µM]	IC50 [5] [µM]	Effect on CBA signal (direct scavenging of H2O2) ([1]; serial dilutions)
c1ccc2c(c1)[I+]c1ccccc1-2 [DPI, diphenylene iodonium chloride]			> 50				inhibited	0.2	2.2	
O=c1c2ccccc2[se]n1-c1ccccc1 [Ebselen, ebselen]		35	> 50	2.9			inhibited			inhibited the CBA signal
c1ccc(Cn2nnc3c(Sc4nc5ccccc5o4)ncnc32)cc1 [VAS2870, 3-benzyl-7-(2-benzoxazolyl)thio-1,2,3-triazolo[4,5-d]pyrimidine]		> 50		> 50			inhibited			
